# According to US20050063931A1, “Hair-follicle treatment,in particular against hair loss” (priority 2001, published 2005):
# Experiments:
# [1] = Abortions in pregnant mice (sonic stress model); format: in vivo, mice of the strain CBA/J; conditions: no stress + SP, pregnant CBA/J mice
# Procedure: (§1) The tests were carried out in vivo on mice of the strain CBA/J which were pregnant since, as is known, there is a close correlation between exposure to stress and an increase in the percentage of abortions. In accordance with a well-established model for the study of stress, some mice were subjected to predetermined doses of ultrasound (sonic stress) for 7 days, to ascertain its impact both on the activity of the hair follicle and on the immune response of the perifollicular region. Another group of mice was subjected to treatment with substance P (SP), and yet others to sonic stress treatment combined with the administration of a NK1-receptor antagonist substance (indicated SP-RA). Upon completion of the above-mentioned treatments, the parameters listed above were measured again and compared with those measured in mice which had not been subjected to any treatment.
# hair follicle [2] = assay: Cells in apoptosis in the hair follicle by TUNEL technique; format: in vivo, mice of the strain CBA/J; conditions: no stress + SP
# Procedure: The tests were carried out in vivo on mice of the strain CBA/J which were pregnant since, as is known, there is a close correlation between exposure to stress and an increase in the percentage of abortions. In order to determine the effect of stress on hair growth, the following biological and immunological parameters were measured: • the number of cells in apoptosis in the hair follicle, • the proliferation of keratinocytes in the hair follicle, • the activity of some immunocytes, in particular, of macrophages, mast cells, and γδT cells. In accordance with a well-established model for the study of stress, some mice were subjected to predetermined doses of ultrasound (sonic stress) for 7 days, to ascertain its impact both on the activity of the hair follicle and on the immune response of the perifollicular region. […] Upon completion of the above-mentioned treatments, the parameters listed above were measured again and compared with those measured in mice which had not been subjected to any treatment. The number of cells in apoptosis was measured by the TUNEL technique in a first region of the hair follicle comprising the infundibulum, the capsular germinal region, and the secondary germinal region (column 3), and in a second, more extensive region comprising, in addition to the first region, the epidermis and the parafollicular dermis (column 4).
# [3] = test system: keratinocytes in the hair follicle; assay: Proliferation of keratinocytes in the hair follicle, positive Ki67 cells (immunohistochemical); format: in vivo, mice of the strain CBA/J; conditions: no stress + SP
# Procedure: as §1, with “abortions. In order to determine the effect of stress on hair growth, the following biological and immunological parameters were measured: • the number of cells in apoptosis in the hair follicle, • the proliferation of keratinocytes in the hair follicle, • the activity of some immunocytes, in particular, of macrophages, mast cells, and γδT cells.” for “abortions.”, “treatment. The proliferation of the keratinocytes was measured by an immunohistochemical technique by measurement of the positive Ki67 cells (column 5).” for “treatment.”
# [4] = test system: perifollicular macrophages; assay: Macrophage presence by expression of Class II MHC glycoprotein; format: in vivo, mice of the strain CBA/J; conditions: no stress + SP
# Procedure: as §1, with “abortions. In order to determine the effect of stress on hair growth, the following biological and immunological parameters were measured: • the number of cells in apoptosis in the hair follicle, • the proliferation of keratinocytes in the hair follicle, • the activity of some immunocytes, in particular, of macrophages, mast cells, and γδT cells.” for “abortions.”, “treatment. Macrophage presence was investigated by detection of the expression of Class II MHC glycoprotein (column 6).” for “treatment.”
# mast cells = assay: Mast-cell activity, degranulated mast cells; format: in vivo, mice of the strain CBA/J; conditions: no stress + SP
# Procedure: as §1, with “abortions. In order to determine the effect of stress on hair growth, the following biological and immunological parameters were measured: • the number of cells in apoptosis in the hair follicle, • the proliferation of keratinocytes in the hair follicle, • the activity of some immunocytes, in particular, of macrophages, mast cells, and γδT cells.” for “abortions.”, “treatment. Mast-cell activity was measured by measuring the percentage of degranulated mast cells relative to the total mast cells present in the field of vision (column 7).” for “treatment.”
# γδT cells = assay: γδT-cell presence (immunohistochemical); format: in vivo, mice of the strain CBA/J; conditions: no stress + SP
# Procedure: as §1, with “abortions. In order to determine the effect of stress on hair growth, the following biological and immunological parameters were measured: • the number of cells in apoptosis in the hair follicle, • the proliferation of keratinocytes in the hair follicle, • the activity of some immunocytes, in particular, of macrophages, mast cells, and γδT cells.” for “abortions.”, “treatment. γδT-cell presence was detected by an immunohistochemical technique (column 8).” for “treatment.”
# hair follicle [5] = assay: Extent of progress of the hair cycle (HCS) 16 days after epilation, FIG. 1; format: in vivo, mice; conditions: group C, substance P, no stress
# Source text: The extent of progress of the cycle in this case was an index of the rate at which the hair follicle progresses from the anagen to the catagen.
# With reference to the histogram of FIG. 1, appended to the present description: • the first group of mice (A) underwent no treatment, • the second group (B) was subjected to sonic stress, • the third group (C) was subjected to treatment with substance P, • the fourth group (D) was subjected to treatment with an NK1-receptor antagonist substance, and • the fifth group (E) was subjected to combined stress and NK1-receptor antagonist substance treatment.
# hair follicle [6] = conditions: treatment during telogen stage; cited from earlier work
substance,measurement,setting,value
Substance P [SP],% Abortions,[1],19%
same,"TUNEL+ cells in apoptosis, first region of the hair follicle (infundibulum, capsular germinal region, secondary germinal region)",hair follicle [2],8.0
same,"TUNEL+ cells in apoptosis, second more extensive region (first region plus epidermis and parafollicular dermis)",hair follicle [2],9.0
same,Ki67+ cells (proliferation of keratinocytes),[3],7.7
same,MHC II (macrophage presence),[4],11.0
same,MC (percentage of degranulated mast cells relative to total mast cells in the field of vision),mast cells,7.9
same,γδ TCR+ (γδT-cell presence),γδT cells,1.3
same,Extent of progress of the cycle (HCS): premature catagen,hair follicle [5],an effect also well simulated by substance P
same,Effect on hair follicle treated during the telogen stage,hair follicle [6],induced to go on to the subsequent anagen stage
